Earlier results on 20 molecules are cited in patent publication US20060111442A1, “Use of methyl pyruvate to increase cellular energy production downstream of glycolysis for the PARP-1 ablation of HIV without necrotic cell death caused by continuous, chronic PARP-1 activation through the concomitant depletion of ATP and NAD” (priority 2004, published 2006).

Like-named read-outs stand apart in the source and are kept apart here.

For series [1] the following is noted: 30 mg/kg i.p. 30 min prior to rosiglitazone.
For series [2], the system named is human non-small cell lung carcinoma cell lines (H1838 and H2106).
Series [3] deals with hepatic stellate cells (HSC).
Series [4] relates to human mammary tumour cell lines.
The test system of series [5] is human neuroblastoma cells (SK-N-SH and SK-N-MC). To be noted: for 15-deoxy-PGJ2-induced cell growth inhibition: co-treatment.
Series [6] addresses T1, PPARgamma (Homo sapiens, UniProt P37231).
T1 sequence (P37231 1-505): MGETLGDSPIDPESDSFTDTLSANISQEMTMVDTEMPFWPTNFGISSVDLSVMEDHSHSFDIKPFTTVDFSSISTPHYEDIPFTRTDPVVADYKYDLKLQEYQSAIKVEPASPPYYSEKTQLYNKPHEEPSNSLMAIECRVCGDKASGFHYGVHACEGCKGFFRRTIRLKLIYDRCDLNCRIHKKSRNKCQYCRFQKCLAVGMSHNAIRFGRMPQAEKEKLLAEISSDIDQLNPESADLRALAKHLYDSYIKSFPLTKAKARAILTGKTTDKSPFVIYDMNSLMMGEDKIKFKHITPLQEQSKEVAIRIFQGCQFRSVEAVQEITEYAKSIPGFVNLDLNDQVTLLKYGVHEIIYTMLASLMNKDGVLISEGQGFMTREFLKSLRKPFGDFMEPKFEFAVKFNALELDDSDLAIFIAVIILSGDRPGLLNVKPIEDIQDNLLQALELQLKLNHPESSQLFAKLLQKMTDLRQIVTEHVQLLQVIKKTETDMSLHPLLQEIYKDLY
Also noted: endogenous in cells; host or cells: human mammary tumour cell lines.

Series [7] concerns porcine carotid artery strips. To be noted: for change in resting tone: 10 mM KCl.
Series [8] concerns primary astrocyte cultures. To be noted: for MPT and cell death: after PARP-1 activation, cyclosporin A sub-micromolar.
The subject of another series is THP-1 monocytic cells. To be noted: PMA-stimulated.
Series [9] concerns human glioblastoma cell lines (A172, U87-MG, M059K, M059J). To be noted: all cell lines.
Series [10] deals with Mouse neuron and astrocyte cultures. To be noted: for NAD(+) depletion resulting from PARP1 activation: MNNG or H(2)O(2); for poly(ADP-ribose) accumulation: during MNNG exposure, immunostaining; for Cell death: hydrogen peroxide, NMDA or MNNG exposure.
The target of a further series is T2, PPARalpha (Homo sapiens, UniProt Q07869).
T2 construct: expressed in transfected cells
T2 sequence (Q07869 whole entry, species assumed): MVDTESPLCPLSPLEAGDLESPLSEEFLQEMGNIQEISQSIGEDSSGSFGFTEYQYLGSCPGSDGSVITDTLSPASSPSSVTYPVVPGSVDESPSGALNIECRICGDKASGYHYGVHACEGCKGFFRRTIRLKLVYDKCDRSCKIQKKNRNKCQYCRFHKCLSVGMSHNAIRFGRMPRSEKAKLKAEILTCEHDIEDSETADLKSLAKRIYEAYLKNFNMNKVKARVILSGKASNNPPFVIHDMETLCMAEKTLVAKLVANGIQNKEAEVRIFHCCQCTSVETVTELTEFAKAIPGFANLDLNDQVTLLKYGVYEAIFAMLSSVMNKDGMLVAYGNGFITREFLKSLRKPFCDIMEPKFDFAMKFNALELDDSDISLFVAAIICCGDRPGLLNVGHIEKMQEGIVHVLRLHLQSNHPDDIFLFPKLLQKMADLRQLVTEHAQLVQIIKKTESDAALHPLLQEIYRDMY

Series [11] deals with T1, PPARgamma. More on the design: expressed in transfected cells.
For series [12] the following is noted: mouse, in vivo.
Experiment in series [13]: not given
This is another data set of the same source.

The test system of series [14] is rat aortic vascular smooth muscle cell. To be noted: 0.1-10 microM.
The conditions of series [15]: human, in vivo.

As to `CC(C)CC[C@@H](O)[C@@H](C)[C@H]1CC[C@H]2[C@@H]3CC=C4C[C@@H](O)CC[C@]4(C)[C@H]3CC[C@]12C` [22(R)-hydroxycholesterol], the “suppressive effects of LXRs on PPARa-induced PPRE-luciferase activity” value in the series with LXR was “dose dependently enhanced”.
As for `CC(C)(c1ccc(OCC2CO2)cc1)c1ccc(OCC2CO2)cc1` (stereo not shown) [BADGE, bisphenol A diglycidyl ether], the “anti-inflammatory effects of rosiglitazone” value in series [1] is “abolished the anti-inflammatory effects”. The “protective effect of rosiglitazone or 15d-PGJ2 against gut I/R” value (1 mg kg-1 i.v. 30 min prior to agonist) was “abolished the protective effect”.
As to `CCCC1([C@H](O)C/C=C/[C@H]2[C@H](O)CC(=O)[C@@H]2CCCCCCC(=O)OC)CCC1` [Butaprost], in [2], the cell growth result was “increased lung carcinoma cell growth”.
Turning to `CN(CCOc1ccc(C[C@H](Nc2ccccc2C(=O)c2ccccc2)C(=O)O)cc1)c1ccccn1` [GW1929], in series [2], the “EP2 mRNA and protein levels” value is given as “significant decrease”; the cell growth result is “inhibition of cell growth”.
For `O=C(Nc1ccccc1)c1cc([N+](=O)[O-])ccc1Cl` [GW9662, 2-chloro-5-nitro-N-henylbenzamide], in series [3] (concomitant treatment), the “abrogation of suppression of HSC collagen by 15dPGJ(2)” value is given as 70%. Further, in series [4], the “growth of tumour cell lines” value was “inhibited growth”. Besides, the rosiglitazone-induced growth inhibition entry in series [4] (combination with rosiglitazone) is given as “enhanced rather than reversed”. For the same molecule, the “15-deoxy-PGJ2-induced cell growth inhibition” value in series [5] was “reversed”. Besides, at PPARgamma [6], the “activation of PPARgamma” value was “prevented activation of PPARgamma”.
`[Cl-].[K+]` [KCl]: the “change in resting tone” value in series [7] (glucose-PSS) was -0.8 ± 0.8 g; in [7] (lactate-PSS), 1.5 ± 0.7 g; in [7] (pyruvate-PSS), -2.1 ± 0.8 g.
`NC(=O)c1ccc[n+]([C@@H]2O[C@H](COP(=O)([O-])OP(=O)(O)OC[C@H]3O[C@@H](n4cnc5c(N)ncnc54)[C@H](O)[C@@H]3O)[C@@H](O)[C@H]2O)c1` [NAD(+)]: in series [8], the “translocation of the apoptosis-inducing factor from mitochondria to nuclei” value is “blocked translocation”; the “MPT and cell death” value is “blocked both MPT and cell death”. In series [8] (10 mM extracellular NAD(+) after MNNG exposure), the “glycolytic capacity and cell death” value was “completely restored glycolytic capacity and prevented cell death”.
Take `COc1cccc(-c2cc(=O)c3ccccc3o2)c1N` [PD98059, 2′-amino-3′-methoxyflavone]: the “15-deoxy-PGJ2-induced cell growth inhibition” value in series [5] is “significantly prevented”.
`CCCCC/C=C/C=C1/C(=O)C=C[C@@H]1C/C=C\CCCC(=O)O` [PGJ2, 15-deoxy-Delta12,14-prostaglandin J2]: in series [3], the “alpha1 (I) procollagen promoter activity” value was “inhibited”. Moreover, the “HSC DNA and collagen synthesis” value in series [3] (10 microm 15dPGJ(2), 0.1 approximately 10 microm BRL49653, WY14643 >100 microm, not <10 microm) is “inhibited DNA and collagen synthesis without affecting the cell viability”. Besides, in the series on THP-1 monocytic cells, the “IL-1, IL-6 and TNFalpha secretion” value is reported as “inhibitory effect”; the IL-1Ra production entry is “increasing IL-1Ra production”. Further, the induction of apoptosis result in [5] was “increased the induction of apoptosis in a dose-dependent manner”. Also, the cell growth entry in series [5] (both cells) was “inhibited cell growth in time- and dose-dependent manners”. Besides, the proliferation entry in series [9] is reported as “inhibited proliferation”. In addition, in series [2], the “EP2 mRNA and protein levels” value is recorded as “significant decrease”; the cell growth entry is on record as “inhibition of cell growth”. Moreover, the “nitrotyrosine formation and ICAM-1 upregulation during reperfusion” value (0.3 mg kg-1 i.v.) is recorded as “markedly reduced”. In addition, the “fall in mean arterial blood pressure, mortality rate, MPO activity, MDA levels, TNF-alpha and IL-1 beta, histological gut injury” value (0.3 mg kg-1 i.v. 30 min prior to ischaemia) is recorded as “significantly reduced”.
With `O=S(=O)(c1ccccc1)N(CC(F)(F)F)c1ccc(C(O)(C(F)(F)F)C(F)(F)F)cc1` [T0901317], the “suppressive effects of LXRs on PPARa-induced PPRE-luciferase activity” value in the series with LXR is “dose dependently enhanced”.
Take `NC(=O)c1ccccc1` [benzamide]: in series [10], the “NAD(+) depletion resulting from PARP1 activation” value is recorded as “prevented the NAD(+) depletion”, the “poly(ADP-ribose) accumulation” value is recorded as “decrease” and the Cell death entry is “markedly reduced”.
For `O=C(OC[C@H]1O[C@@H](OC(=O)c2cc(O)c(O)c(OC(=O)c3cc(O)c(O)c(O)c3)c2)[C@H](OC(=O)c2cc(O)c(O)c(OC(=O)c3cc(O)c(O)c(O)c3)c2)[C@@H](OC(=O)c2cc(O)c(O)c(OC(=O)c3cc(O)c(O)c(O)c3)c2)[C@@H]1OC(=O)c1cc(O)c(O)c(OC(=O)c2cc(O)c(O)c(O)c2)c1)c1cc(O)c(O)c(OC(=O)c2cc(O)c(O)c(O)c2)c1` [gallotannin], in series [10], the “NAD(+) depletion resulting from PARP1 activation” value was “prevented the NAD(+) depletion”, the “poly(ADP-ribose) accumulation” value is on record as “increase” and the Cell death result is listed as “equally reduced”.
For `CC(C)=CCC(=O)C1(O)C(O)=C(C(=O)C(C)C)C(=O)C1CC=C(C)C` (stereo not shown) [isocohumulone], the “activation of PPARalpha” value at PPARalpha is on record as “activate”. In addition, the “activation of PPARgamma” value at PPARgamma [11] was “activate”.
For `CC(C)=CCC(=O)C1(O)C(O)=C(C(=O)CC(C)C)C(=O)C1CC=C(C)C` (stereo not shown) [isohumulone], in series [12], the “body weight increase versus control group” value is reported as “did not result in significant body weight gain”, the “reduced plasma free fatty acid level” value is 73.1%, the “reduced plasma glucose level” value was 65.3% and the “reduced plasma triglyceride level” value is 62.6%. The “activation of PPARalpha” value at PPARalpha was “activate”. Further, the “activation of PPARgamma” value at PPARgamma [11] is “activate”.
As to `CC(O)C(=O)O` (stereo not shown) [lactate], the “increase of O2 consumption” value in [7] (10 mm in PSS) was “without effect”.
Take `CN(C)C(=N)N=C(N)N` [metformin]: the “HbA1c, insulin, and free fatty acid concentrations” value in series [13] (8 mg rosiglitazone or 2 g metformin, 16 weeks) is “similarly decreased”. In addition, in series [13] (2 g metformin, baseline 84+/−4, P<0.05), the “Body weight at 16 weeks” value was 82 ± 4 kg. The “Serum adiponectin concentrations, increase” value in series [13] (16 weeks) is “remained unchanged”. In series [13] (baseline 15+/−3 rosiglitazone, 13+/−3 metformin), the “Liver fat (proton spectroscopy) at 16 weeks” value was 14+/−3%.
For the molecule `O=C(O)c1c(Sc2ccccc2)c2cc(Cl)ccc2n1Cc1ccc(Cl)cc1` [nTZDpa], in series [14], the “vascular smooth muscle cell growth” value was “inhibited vascular smooth muscle cell growth”. In addition, in the series on human coronary VSMCs, the apoptosis entry was “induce caspase-mediated apoptosis”.
Take `CN(CCOc1ccc(CC2SC(=O)NC2=O)cc1)c1ccccn1` (stereo not shown) [rosiglitazone]: the “blood counts, viral loads, CD4 counts” value in series [15] was “no significant changes”.
Take cyclosporin A: in series [8], the “translocation of the apoptosis-inducing factor from mitochondria to nuclei” value was “blocked translocation”; the “MPT and cell death” value was “blocked MPT and cell death”.
For the molecule nobotanin B, the Cell death result in series [10] was “equally reduced”.
